Measurements reported in US9750733B2, “Compounds for preventing and/or treating lysosomal storage disorders and/or degenerative disorders of the central nervous system” (Amicus Therapeutics, Inc., priority 2012, dated 2017).
Counter-ions that a name gives are not always drawn.

Columns and labels:
[1] = Dynamic vapor sorption (DVS) hygroscopicity analysis; type: physicochemical; conditions: for Hygroscopicity (% water uptake up to 45% relative humidity): DVS, 25° C., 60 minutes hold per 10% step in relative humidity, weight increase as percentage of material weight
Procedure: Differences in hygroscopicity (moisture uptake) of the various forms of a solid material provide a measure of their relative stability at increasing relative humidity. Dynamic vapor sorption (DVS) analysis was performed for (3R,4R,5S)-5-(difluoromethyl)piperidine-3,4-diol, (3R,4R,5S)-5-(difluoromethyl)piperidine-3,4-diol fumarate Form A, (3R,4R,5S)-5-(difluoromethyl)piperidine-3,4-diol fumarate Form 1B and (3R,4R,5S)-5-(difluoromethyl)piperidine-3,4-diol tosylate. Moisture sorption isotherms for samples of each salt and the free base were obtained using a DVS-1 system from Surface Measurement Systems (London, UK). The relative humidity was cycled from 45% to 95% (sorption), back to 0% (desorption) and back to 45% (sorption) at a constant temperature of 25° C. with a hold time of 60 minutes per each 10% step in relative humidity. The increase in weight due to moisture uptake was measured as a percentage of the weight of the material.

β-glucocerebrosidase = molecular target: T1, β-glucocerebrosidase (Homo sapiens, UniProt P04062); conditions: as described in US 2011/0091442 and 2011/0092541; cited from earlier work
T1 sequence (P04062 40-536): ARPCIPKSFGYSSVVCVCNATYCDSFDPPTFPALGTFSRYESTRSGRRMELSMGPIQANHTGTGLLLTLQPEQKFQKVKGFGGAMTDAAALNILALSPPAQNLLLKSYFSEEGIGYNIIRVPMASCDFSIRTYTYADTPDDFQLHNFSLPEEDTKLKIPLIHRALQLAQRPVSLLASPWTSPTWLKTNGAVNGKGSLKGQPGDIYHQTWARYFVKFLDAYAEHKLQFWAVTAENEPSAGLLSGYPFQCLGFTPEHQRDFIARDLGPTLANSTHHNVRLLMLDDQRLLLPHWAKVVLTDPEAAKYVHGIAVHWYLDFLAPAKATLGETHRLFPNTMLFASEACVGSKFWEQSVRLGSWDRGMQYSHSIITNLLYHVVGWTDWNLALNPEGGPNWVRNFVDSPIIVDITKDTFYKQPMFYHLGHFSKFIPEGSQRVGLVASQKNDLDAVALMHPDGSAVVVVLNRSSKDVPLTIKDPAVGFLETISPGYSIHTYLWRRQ

[2] = Physical stability under stress and ambient conditions; type: physicochemical
Text: (§1) The hydrochloride and fumarate Forms B, B2 and B3 salts of (3R,4R,5S)-5-(difluoromethyl)piperidine-3,4-diol were also found to be hygroscopic.

[3] = Separate dynamic vapor sorption test (hydrochloride salt); type: physicochemical
Text: as §1

O[C@H]1[C@H](O)CNC[C@@H]1C(F)F [Free Base, (3R,4R,5S)-5-(difluoromethyl)piperidine-3,4-diol]
Hygroscopicity (% water uptake up to 45% relative humidity) [1]: 9.3%
Inhibition of β-glucocerebrosidase (in words) (β-glucocerebrosidase): potent and selective inhibitors

O=C(O)/C=C/C(=O)O.O[C@H]1[C@H](O)CNC[C@@H]1C(F)F [Fumarate Form 1B, (3R,4R,5S)-5-(difluoromethyl) piperidine-3,4-diol fumarate Form 1B]
Hygroscopicity (% water uptake up to 45% relative humidity) [1]: 0.497%
Hygroscopicity of the salt relative to the free base (fold lower than free base) ([1]; comparison of the Table 6 DVS values): roughly 20 fold

O[C@H]1[C@H](O)CNC[C@@H]1C(F)F [Fumarate Form A, (3R,4R,5S)-5-(difluoromethyl)piperidine-3,4-diol fumarate Form A]
Hygroscopicity (% water uptake up to 45% relative humidity) [1]: 0.09%
Physical state after one day at 40° C. and 75% relative humidity [2]: physically stable
Physical stability in slurries ([2]; slurries at 10° C. and 30° C. in a variety of organic solvents): physically stable
Physical stability on wet grinding ([2]; wet grinding for 60 minutes at 30 Hz): physically stable

Cc1ccc(S(=O)(=O)O)cc1.O[C@H]1[C@H](O)CNC[C@@H]1C(F)F [Tosylate, (3R,4R,5S)-5-(difluoromethyl)piperidine-3,4-diol tosylate]
Hygroscopicity (% water uptake up to 45% relative humidity) [1]: 0.08%

O=C(O)/C=C/C(=O)O.O[C@H]1[C@H](O)CNC[C@@H]1C(F)F [fumarate Form B3, (3R,4R,5S)-5-(difluoromethyl) piperidine-3,4-diol fumarate Form B3]
Stability at ambient conditions ([2]; at least one day at ambient conditions (room temperature)): remained stable

O=C(O)/C=C/C(=O)O.O[C@H]1[C@H](O)CNC[C@@H]1C(F)F [fumarate Form B, (3R,4R,5S)-5-(difluoromethyl) piperidine-3,4-diol fumarate Forms B, B2 and B3]
Hygroscopicity (in words) [2]: hygroscopic
Physical state after one day at 40° C. and 75% relative humidity [2]: became deliquescent

Cl.O[C@H]1[C@H](O)CNC[C@@H]1C(F)F [hydrochloride, (3R,4R,5S)-5-(difluoromethyl)piperidine-3,4-diol hydrochloride]
Inhibition of β-glucocerebrosidase (in words) (β-glucocerebrosidase): potent and selective inhibitors
Relative humidity after which the salt became deliquescent [3]: > 60 % relative humidity
Hygroscopicity (in words) [2]: hygroscopic
